Where two headings read alike, the source gives them in different places. Blank lines part the entries; values can stand above or below the compound they belong to.
Tests used:
[1] = Drug interaction studies: change in pharmacokinetics of co-administered drug in the presence of elagolix; type: in vivo, human; conditions: ethinyl estradiol 35 mcg and triphasic norgestimate 0.18/0.215/0.25 mg once daily; elagolix 150 mg once daily; N 21
Description: Drug interaction studies were performed with elagolix and other drugs likely to be co-administered and with drugs commonly used as probes for pharmacokinetic interactions. Tables 8 and 9 summarize the pharmacokinetic effects when elagolix was co-administered with these drugs.

[2] = Drug-drug interaction study: effect of multiple doses of elagolix sodium on pharmacokinetics of bupropion (CYP2B6 substrate) and OH-bupropion; conditions: for t1/2: harmonic mean; for AUCinf / AUCt / Cmax: mean; for Tmax / Metabolite to Parent AUCinf Ratio / Metabolite to Parent AUCt Ratio / Metabolite to Parent Cmax Ratio: median; for Tmax: N = 24
Description: Subjects: Twenty four (24) adult premenopausal women in generally good health participated in this study.
Elagolix 300 mg BID (as 300 mg immediate release tablets) was administered in the morning and evening on days 1 through 14 in period 2. […] No food was consumed for 2 hours prior to the evening doses of elagolix continuing through 2 hours after. The doses of elagolix were separated by approximately 12 hours.
Individual PK parameters (peak concentration [Cmax] and area under the concentration-time curve [AUC]) were estimated using noncompartmental methods.
Central value ratios (90% confidence intervals) for Cmax, AUC, and metabolite to parent ratios (MPRs) (day 11, period 2 vs. day 1, period 1) were calculated to assess the DDIs. Safety was evaluated through assessment of adverse events, vital signs, electrocardiogram, and clinical laboratory tests.
Adverse events (AEs) were monitored throughout the DDI study. Additional safety evaluations included monitoring of physical examinations, vital signs, electrocardiogram variables, and clinical laboratory values were assessed

[3] = Phase 1 open-label study: coadministration of combined oral contraceptive (EE+LNG) with elagolix sodium, pharmacokinetics, safety and tolerability; type: in vivo, human; conditions: for AUC(0-inf) / AUC(0-t) / Cmax: female, human, in vivo, oral
Description: Objective: To evaluate the effect of elagolix on the pharmacokinetics, safety, and tolerability of a single dose of a combined oral contraceptive (COC) containing EE and LNG in healthy premenopausal female subjects. […] [table] […] Diagnosis and Main Criteria for Inclusion: Subjects were premenopausal females, and age was between 18 and 49 years, inclusive. Test Product, Dose/Strength/Concentration, and Mode of Administration: […] EE/LNG 0.02 mg/0.1 mg tablet; All study drugs were administered orally. Duration of Treatment: […] EE/LNG: 0.02 mg/0.1 mg on two separate occasions. Criteria for Evaluation: Pharmacokinetic: Cmax, Tmax, t1/2 and AUC. Safety: Vital signs, physical examinations, laboratory tests, and adverse events. […] The tabulation of the number of subjects with treatment-emergent adverse events also was provided with further breakdowns by severity rating and relationship to study drug.

[4] = Drug interactions: effects of ORIAHNN on other drugs; conditions: co-administration of ORIAHNN
[5] = Drug interactions: effects of ORILISSA on other drugs; conditions: co-administration of ORILISSA
[6] = Drug-drug interaction study: effect of multiple doses of elagolix sodium on pharmacokinetics of omeprazole (CYP2C19 substrate) and its metabolites; conditions: for AUCinf / AUCt / Cmax: geometric mean; for RAUCinf = metabolite-to-omeprazole AUCinf ratio / RAUCt = metabolite-to-omeprazole AUCt ratio / Tmax: median
Description: Subjects: Twenty adult premenopausal female subjects were enrolled in the study.
Beginning on Day 3, subjects received elagolix 300 mg BID under fasting conditions every day until Day 10. […] Doses of elagolix were separated by approximately 12 hours.
Testing was performed for CYP2C19 variants including the *2 (r54244285), *3 (r54986893), *4 (r528399504), *8 (r541291556), *10 (r56413438) and *12 (r555640102) alleles.
Safety was evaluated during confinement and at each study visit through adverse event monitoring, vital signs measurements, physical examinations, and routine laboratory tests.

[7] = bupropion 150 mg + elagolix 300 mg BID (Day 11, Period 2)
[8] = bupropion 150 mg alone (Day 1, Period 1)
[9] = bupropion + elagolix (Day 11, Period 2)
[10] = bupropion alone (Day 1, Period 1)
[11] = co-administration with elagolix
[12] = single 150 mg bupropion, elagolix 300 mg twice daily
[13] = ethinyl estradiol 20 mcg/levonorgestrel 0.1 mg single dose, elagolix 200 mg twice daily x 15 days, N 20
[14] = following elagolix 200 mg BID for 14 days
[15] = Study Day 11, omeprazole 40 mg + elagolix 300 mg BID
[16] = Study Day 11: elagolix 300 mg BID + omeprazole 40 mg
[17] = single 40 mg omeprazole, elagolix 300 mg twice daily

Structure (SMILES): C#CC1(O)CC[C@H]2[C@@H]3CCC4=CC(=O)CC[C@@H]4[C@H]3CC[C@@]21CC (stereo partly shown) [Norgestrel]
- Ratio (90% CI) AUC, co-administration with elagolix vs medication alone [1]: 0.92
- Ratio (90% CI) Cmax, co-administration with elagolix vs medication alone [1]: 0.89

Structure (SMILES): CC(NC(C)(C)CO)C(=O)c1cccc(Cl)c1 (stereo not shown) [OH-Bupropion]
- t1/2 [2, 7]: 20.5 h
- AUCinf [2, 7]: 17600 ng·h/mL
- AUCt [2, 7]: 17000 ng·h/mL
- Cmax [2, 7]: 429 ng/mL
- Tmax [2, 7]: 6.0 h
- t1/2 [2, 8]: 24.7 h
- AUCinf [2, 8]: 16700 ng·h/mL
- AUCt [2, 8]: 15700 ng·h/mL
- Cmax [2, 8]: 323 ng/mL
- Tmax [2, 8]: 10.0 h
- Metabolite to Parent AUCinf Ratio [2, 9]: 15.9
- Metabolite to Parent AUCt Ratio [2, 9]: 15.9
- Metabolite to Parent Cmax Ratio [2, 9]: 3.92
- Metabolite to Parent AUCinf Ratio [2, 10]: 15.7
- Metabolite to Parent AUCt Ratio [2, 10]: 15.4
- Metabolite to Parent Cmax Ratio [2, 10]: 3.61
- Cmax upon co-administration with elagolix, in words [2, 11]: increased
- changes in metabolite to parent ratios (OH-bupropion/bupropion) of Cmax and AUC ([2]; elagolix 300 mg BID): ≤ 12%
- increase in Cmax upon co-administration with elagolix ([2]; elagolix 300 mg BID): 32%
- AUCinf ratio, co-administered with elagolix vs bupropion alone [2, 12]: about 1.063
- Cmax ratio, co-administered with elagolix vs bupropion alone [2, 12]: about 1.317

Structure (SMILES): COc1ccc2[nH]c([S+]([O-])Cc3ncc(C)c(OC)c3C)nc2c1 (stereo not shown) [omeprazole, 5-methoxy-2-[[(4-methoxy3,5-dimethyl-2-pyridinyl)methyl]sulfinyl]-1H-benzimidazole, reference compound]
- Tmax ([6]; Study Day 1, omeprazole 40 mg): 2.0 h
- Tmax [6, 15]: 2.0 h
- t1/2 ([6]; female, human, in vivo): 1.57 h
- increase in AUCinf ([6]; female, human, in vivo, 300 mg): 1.8 fold
- increase in Cmax ([6]; female, human, in vivo, 300 mg): 1.9 fold
- Cmax and AUCinf values upon co-administration with elagolix, in words ([6]; human, in vivo): increased
- Effect on Plasma Exposure of Concomitant Drug (direction of change in AUC) [4]: ↑ omeprazole
- Effect on Plasma Exposure of Concomitant Drug (direction of change in AUC) [5]: ↑ omeprazole

Now from value to compound, other results behind:

- Effect on Plasma Exposure of Concomitant Drug (direction of change in AUC) [4]: ↓levonorgestrel
- Effect on Plasma Exposure of Concomitant Drug (direction of change in AUC) [5]: ↓ levonor-
Structure (SMILES): C#C[C@]1(O)CC[C@H]2[C@@H]3CCC4=CC(=O)CC[C@@H]4[C@H]3CC[C@@]21CC [levonorgestrel, 17α-Ethynyl-18-methylestr-4-en-17β-ol-3-one]
- decrease in plasma concentrations of levonorgestrel ([3]; COC containing 0.1 mg levonorgestrel, elagolix 200 mg twice daily): 27%
- Ratio (90% CI) AUC, co-administration with elagolix vs medication alone [3, 13]: 0.73
- Ratio (90% CI) Cmax, co-administration with elagolix vs medication alone [3, 13]: 0.97
- AUC(0-inf) ([3]; Study Day 1: EE/LNG 0.02 mg/0.1 mg, read-out: AUCinf, Central Value Reference): 42.1 ng·h/mL
- AUC(0-t) ([3]; Study Day 1: EE/LNG 0.02 mg/0.1 mg, read-out: AUCt, Central Value Reference): 31.1 ng·h/mL
- Cmax ([3]; Study Day 1: EE/LNG 0.02 mg/0.1 mg, read-out: Cmax, Central Value Reference): 2.62 ng/mL
- AUC(0-inf) ([3]; Study Day 18: EE/LNG 0.02 mg/0.1 mg + elagolix 200 mg, read-out: AUCinf, Central Value Test): 30.5 ng·h/mL
- AUC(0-t) ([3]; Study Day 18: EE/LNG 0.02 mg/0.1 mg + elagolix 200 mg, read-out: AUCt, Central Value Test): 25 ng·h/mL
- Cmax ([3]; Study Day 18: EE/LNG 0.02 mg/0.1 mg + elagolix 200 mg, read-out: Cmax, Central Value Test): 2.54 ng/mL
- decrease in AUCinf [3, 14]: 27%
- decrease in Cmax [3, 14]: 3%

- M:P AUCinf Ratio, Relative Bioavailability Point Estimate ([6]; Day 11 vs. Day 1): 1.246
- M:P AUCt Ratio, Relative Bioavailability Point Estimate ([6]; Day 11 vs. Day 1): 1.497
- AUCinf ([6]; Study Day 1, omeprazole 40 mg): 1400 ng·h/mL
- AUCt ([6]; Study Day 1, omeprazole 40 mg): 1240 ng·h/mL
- Cmax ([6]; Study Day 1, omeprazole 40 mg): 152 ng/mL
- t1/2 ([6]; Study Day 1, omeprazole 40 mg, harmonic mean): 3.27 h
- RAUCinf = metabolite-to-omeprazole AUCinf ratio ([6]; Study Day 1, omeprazole 40 mg): 0.85
- RAUCt = metabolite-to-omeprazole AUCt ratio ([6]; Study Day 1, omeprazole 40 mg): 0.76
- Tmax ([6]; Study Day 1, omeprazole 40 mg): 3.5 h
- M:P AUCinf Ratio, Central Value Reference ([6]; Study Day 1: omeprazole 40 mg): 0.825
- M:P AUCt Ratio, Central Value Reference ([6]; Study Day 1: omeprazole 40 mg): 0.679
- AUCinf [6, 15]: 3450 ng·h/mL
- AUCt [6, 15]: 3380 ng·h/mL
- Cmax [6, 15]: 411 ng/mL
- RAUCinf = metabolite-to-omeprazole AUCinf ratio [6, 15]: 0.99
- RAUCt = metabolite-to-omeprazole AUCt ratio [6, 15]: 0.97
- Tmax [6, 15]: 4.0 h
- M:P AUCinf Ratio, Central Value Test [6, 16]: 1.028
- M:P AUCt Ratio, Central Value Test [6, 16]: 1.017
- Cmax and AUCinf values upon co-administration with elagolix, in words [6, 11]: increased
- increase in AUCinf ([6]; elagolix 300 mg BID dosing): 2.5 fold
- increase in Cmax ([6]; elagolix 300 mg BID dosing): 2.7 fold
- increase in M:P AUCinf ratio ([6]; elagolix 300 mg BID dosing): 25%
- increase in exposures (AUCinf) in CYP2C19 EM and IM subjects ([6]; extensive and intermediate metabolizers, elagolix co-administration): ~3 fold
- AUCinf ratio, co-administered with elagolix vs omeprazole alone [6, 17]: about 2.55
- Cmax ratio, co-administered with elagolix vs omeprazole alone [6, 17]: about 2.70
Structure (SMILES): COc1ccc2nc(S(=O)(=O)Cc3ncc(C)c(OC)c3C)[nH]c2c1 [omeprazole sulfone]
